Here are results for 13 compounds from patent US7473711B2, “Androgen modulators” (Pfizer Inc., priority 2004, dated 2009).

The target in assay [1] is T1, hAR (human androgen receptor) (Homo sapiens, UniProt P10275).
T1 construct: made in house; host or cells: baculovirus/Sf9 insect cells (extract)
T1 sequence (P10275 1-920): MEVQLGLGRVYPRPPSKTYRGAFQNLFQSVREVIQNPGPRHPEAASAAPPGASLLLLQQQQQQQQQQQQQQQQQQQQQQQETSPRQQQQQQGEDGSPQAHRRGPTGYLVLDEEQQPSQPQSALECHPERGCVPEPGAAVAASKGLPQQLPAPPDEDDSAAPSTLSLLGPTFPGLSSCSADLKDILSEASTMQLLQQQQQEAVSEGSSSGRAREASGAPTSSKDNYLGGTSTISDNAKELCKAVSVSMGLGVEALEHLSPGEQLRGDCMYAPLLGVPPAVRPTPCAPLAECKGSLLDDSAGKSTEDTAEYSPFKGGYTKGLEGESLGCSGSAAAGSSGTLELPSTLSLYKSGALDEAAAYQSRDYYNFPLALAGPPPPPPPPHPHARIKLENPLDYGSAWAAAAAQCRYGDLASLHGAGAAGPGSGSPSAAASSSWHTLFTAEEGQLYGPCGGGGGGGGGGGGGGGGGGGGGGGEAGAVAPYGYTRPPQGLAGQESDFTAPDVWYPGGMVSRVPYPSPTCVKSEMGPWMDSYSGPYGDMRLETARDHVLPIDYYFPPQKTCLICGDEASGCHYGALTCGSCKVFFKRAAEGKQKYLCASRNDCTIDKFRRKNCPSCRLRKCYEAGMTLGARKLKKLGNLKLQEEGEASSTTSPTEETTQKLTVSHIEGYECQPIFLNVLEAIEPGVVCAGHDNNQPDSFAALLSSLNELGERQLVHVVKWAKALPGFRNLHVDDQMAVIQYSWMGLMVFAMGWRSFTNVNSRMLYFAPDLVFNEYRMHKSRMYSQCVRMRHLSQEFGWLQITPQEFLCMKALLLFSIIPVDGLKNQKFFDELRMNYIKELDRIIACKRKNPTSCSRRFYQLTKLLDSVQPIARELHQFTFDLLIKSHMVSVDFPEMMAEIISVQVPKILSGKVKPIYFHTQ
Description: Competitive binding analysis on hAR extracts with 3H-DHT tracer. Here is the method:
The compounds of Formula I have affinity for the androgen receptor. […] The description below describes how the assay was carried out.
Competitive binding analysis was performed on baculovirus/Sf9 generated hAR extracts in the presence or absence of different concentrations of test agent and a fixed concentration of ^3H-dihydrotestosterone (^3H-DHT) as tracer. This binding assay method is a modification of a protocol previously described (Liao S., et. al. J. Steroid Biochem. 20:11-17 1984). Briefly, progressively decreasing concentrations of compounds are incubated in the presence of hAR extract (Chang et al. P.N.A.S. Vol. 89, pp. […], 1992), hydroxylapatite, and 1 nM ^3H-DHT for one hour at 4° C. Subsequently, the binding reactions are washed three times to completely remove excess unbound ^3H-DHT. hAR bound ^3H-DHT levels are determined in the presence of compounds (i.e. competitive binding) and compared to levels bound when no competitor is present (i.e. maximum binding). Compound binding affinity to the hAR is expressed as the concentration of compound at which one half of the maximum binding is inhibited. Table II below provides the results that were obtained for selected compounds (reported data is the mean of multiple tests as shown below)

Assay [2] has as its target T2, androgen receptor in MDA-MB453-MMTV clone 54-19 cells (Homo sapiens, UniProt P10275).
T2 sequence (P10275 1-920 Q868H): T1 sequence (P10275 1-920) with Q868H
The assay is described as follows: AR antagonist cell assay (MMTV-luciferase reporter, 100 pM DHT). The class given is cell-based. Here is the method:
The compounds ability to antagonize the effects of androgen on the androgen receptor were determined in a whole cell assay as described immediately below.
Experimental Procedure for AR Antagonist Cell Assay
Cell line: MDA-MB453-MMTV clone 54-19. This cell line is a stable transfected cell line with MDA-MB453 cell background (a human breast tumor cell line expressing androgen receptor). A MMTV minimal promoter containing ARE was first cloned in front of a firefly luciferase reporter gene. Then the cascade was cloned into transfection vector pUV120puro. Electroporation method was used for transfecting MDA-MB-453 cell. Puromycin resistant stable cell line was selected. Cell Culture Media and Reagents:
Culture medium: DMEM (high glucose, Gibco cat #: 11960-044), 10% FBS, and 1% L-glutamine
Plating medium: DMEM (phenol red free), 10% charcoal treated HyClone serum, 1% L-glutamine
Assay medium: DMEM (phenol red free), 1% charcoal treated HyClone serum, 1% L-glutamine, and 1% penicillin/streptomycin
3X luciferase buffer: 2% beta-mercaptoethanol, 0.6% ATP, 0.0135% luciferine in cell lysis buffer
• 1. Cells are maintained in culture medium, splitting cells when they reach 80-90% confluence • 2. To test compounds, 10,000 cells/well are plated to opaque 96 cell culture plate in 100 ul/well plating medium, culture for overnight at 37° C. in cell culture incubator • 3. Carefully remove plating medium, then add 80 ul/well of pre-warmed assay medium, add 10 ul/well testing compound (final concentration at) 1000 nM, 200 nM, 40 nM, 8 nM, 1.6 nM, and 0.32 nM), incubate at 37° C. for 30 minutes • 4. Add 10 ul/well freshly prepared DHT (final concentration at 100 pM) to each well, incubate at 37° C. for 17 hr (overnight) • 5. Add 50 ul/well 3X luciferase buffer, incubate at room temperature for 5 minutes, then count on Luminometer
The fold induction over background by 100 pM DHT in the absence of testing compounds is standardized as 100% and experimental result is expressed as percentage of inhibition by testing compounds.
The results are reported as the mean of multiple tests as described below (the numbers of tests are indicated in the footnote). N.D. denotes that the compound was not tested.

A further assay deals with spinal BMD. As to conditions: after 7 years of treatment; cited from earlier work.
The mark [3] stands for this setting: baculovirus/Sf9 hAR extract, 1 nM 3H-DHT, one hour at 4° C, mean of multiple tests, read-out: AR Binding IC50.
The mark [4] stands for this setting: MDA-MB453-MMTV clone 54-19, inhibition of 100 pM DHT induced luciferase, 17 hr; mean of multiple tests; read-out: AR Cell IC50.

Positions count from the first letter of the chain named. Like-named read-outs stand apart in the source and are kept apart here.

By IC50 is commonly meant the concentration at which inhibition is half-maximal. Take `CCCC(CCCOc1ccc(C#N)c(C(F)(F)F)c1)Oc1ccc(C#N)c(C(F)(F)F)c1` (stereo not shown) [Example 21, 4,4′-[Heptane-1,4-diylbis(oxy)]bis[2-(trifluoromethyl)benzonitrile]]: the values for the IC50 in assay [1] (setting [3]) and in assay [2] (setting [4]) were 0.233 µM and more than 1 µM, respectively. Taken in the same sequence, the figures for `CC(C)NCC(COc1ccc(C#N)c(C(F)(F)F)c1)Oc1ccc(C#N)c(C(F)(F)F)c1` (stereo not shown) [Example 7] were 0.319 µM and more than 1 µM. For `CC(CCC(C)Oc1ccc(C#N)c(C(F)(F)F)c1)Oc1ccc(C#N)c(C(F)(F)F)c1` (stereo not shown) [Example 22, 4,4′-[Hexane-2,5-diylbis(oxy)]bis[2-(trifluoromethyl)benzonitrile]] the same measures were 0.293 µM and 0.322 µM. For `COC[C@H](COc1ccccc1)Oc1ccc(C#N)c(C(F)(F)F)c1` [Example 30, (1R)-4-(1-Methoxymethyl-2-phenoxy-ethoxy)-2-trifluoromethyl-benzonitrile], the IC50 in assay [1] was 0.03 µM; in assay [2] (read-out: AR Cell IC50; MDA-MB453-MMTV clone 54-19, inhibition of 100 pM DHT induced luciferase, 17 hr; mean of multiple tests) it was 0.04 µM. Consider `CCCC(COc1ccc(C#N)c(C(F)(F)F)c1)Oc1ccc(C#N)c(C(F)(F)F)c1` (stereo not shown) [Example 4, 4,4′-[Pentane-1,2-diylbis(oxy)]bis[2-(trifluoromethyl)benzonitrile]], for which the IC50 in assay [1] (setting [3]) is 0.63 µM; in assay [2] (setting [4]) it was more than 1 µM. Taken in the same sequence, the figures for `CCCCCCC(COc1ccc(C#N)c(C(F)(F)F)c1)Oc1ccc(C#N)c(C(F)(F)F)c1` (stereo not shown) [Example 9, 4,4′-[Octane-1,2-diylbis(oxy)]bis[2-(trifluoromethyl)benzonitrile]] were 0.109 µM and 0.531 µM. Regarding `N#Cc1ccc(O[C@H](CO)COc2ccccc2)cc1C(F)(F)F` [Example 29, (1R)-4-(1-Hydroxymethyl-2-phenoxy-ethoxy)-2-trifluoromethyl-benzonitrile], the IC50 in assay [1] was 0.044 µM; in assay [2] (setting [4]), 0.117 µM. On to `NCCCC(O)(P(=O)(O)O)P(=O)(O)O` [alendronate], for which, in the assay with spinal BMD, the “increase in spinal BMD” value was not above 11%. For the compound `CC(CCCCOc1ccc(C#N)c(C(F)(F)F)c1)Oc1ccc(C#N)c(C(F)(F)F)c1` (stereo not shown) [Example 25, 4,4′-[Hexane-1,5-diylbis(oxy)]bis[2-(trifluoromethyl)benzonitrile]], the values for the IC50 in assay [1] (setting [3]) and in assay [2] (setting [4]) were 0.159 µM and more than 1 µM, respectively. For `COC[C@@H](COc1ccccc1)Oc1ccc(C#N)c(C(F)(F)F)c1` [Example 31, (1S)-4-(1-Methoxymethyl-2-phenoxy-ethoxy)-2-trifluoromethyl-benzonitrile], the IC50 came to 0.046 µM in assay [1] and 0.126 µM in assay [2] (setting [4]).

As to `C[C@@H](CCOc1ccc(C#N)c(C(F)(F)F)c1)Oc1ccc(C#N)c(C(F)(F)F)c1` [Example 15, 4-({(3S)-3-[4-Cyano-3-(trifluoromethyl)phenoxy]butyl}oxy)-2-(trifluoromethyl)benzonitrile], the results for the IC50 in assay [1] and in assay [2] (setting [4]) were 0.049 µM and 0.257 µM, respectively.

For the compound `C[C@H](CCOc1ccc(C#N)c(C(F)(F)F)c1)Oc1ccc(C#N)c(C(F)(F)F)c1` [Example 14, 4-({(3R)-3-[4-Cyano-3-(trifluoromethyl)phenoxy]butyl}oxy)-2-(trifluoromethyl)benzonitrile], the IC50 in assay [1] (setting [3]) came to 0.281 µM; in assay [2] (setting [4]), 0.905 µM. In the case of `C[C@@H](C[C@H](C)Oc1ccc(C#N)c(C(F)(F)F)c1)Oc1ccc(C#N)c(C(F)(F)F)c1` (stereo in doubt) [Example 20, 4,4′-[(2S,4S)-Pentane-2,4-diylbis(oxy)]bis[2-(trifluoromethyl)benzonitrile]], the IC50 in assay [1] was 0.017 µM; in assay [2] (setting [4]), 0.159 µM.
